Legend:
S. mansoni adult worms = experiment: In vitro antischistosomal assay on adult worms (mortality/viability by motility); type: cell-based, Schistosoma mansoni; settings: for EC50: Schistosoma mansoni, mortality of S. mansoni adult worms, 95% CI in square brackets; for in vitro antischistosomal activity (in words): concentrations of up to 50 μM
[1] = tested on: S. mansoni (49 day old adult infection); experiment: In vivo antischistosomal assay in S. mansoni-infected mice (worm burden, oogram, fecal egg count); parameters: species or system Schistosoma mansoni; settings: for worm burden reduction (WBR): single dose 400 mg/kg p.o., treated 49 days postinfection, vs vehicle control
Description: The Belo Horizonte strain of Schistosoma mansoni was maintained in its life cycle using Biomphalaria glabrata snails (intermediate hosts) and female Swiss mice (final hosts). Three week old female Swiss mice (∼20 g) were obtained from […] para Laboratório (São Paulo, Brazil). Infected snails and mice were housed under controlled conditions (25 °C, 50% humidity, and 12 h light/dark cycles) with ad libitum access to food and water. Mice were percutaneously infected with 80 S. mansoni cercariae and treated 49 days postinfection (adult worm stage). […] At 63 days postinfection, mice were euthanized (CO2), and worms were recovered by mesenteric perfusion. Worm burden reduction was calculated after sexing, , and fecal egg counts were performed as previously described. , The study complied with ARRIVE guidelines, including randomization to minimize bias.

in vitro = settings: African green monkey
Vero cells = experiment: Cytotoxicity in mammalian cells (MTT assay); settings: CC50 on Vero cells divided by EC50 on schistosomes

| Structure (SMILES) | EC50 (S. mansoni adult worms) | in vitro antischistosomal activity (in words) (S. mansoni adult worms) | worm burden reduction (WBR) [1] | CC50 (in vitro) | reduction in immature egg deposition (oogram, EBR immature) ([1]; 400 mg/kg p.o., 49 day old adult infection) | reduction in number of eggs per gram of feces (egg load, EBR) ([1]; 400 mg/kg p.o., 49 day old adult infection, vs control) | CC50 at 72 h (in vitro) | SI (selectivity index) (Vero cells) |
| --- | --- | --- | --- | --- | --- | --- | --- | --- |
| COc1ccc(-c2cc(=O)c3c(O)cc(O)cc3o2)cc1 [acacetin (14), 5,7-dihydroxy-4′-methoxyflavone] | > 50 µM | inactive |  |  |  |  |  |  |
| C=C(C)[C@@H]1CC[C@]2(C(=O)O)CC[C@]3(C)[C@H](CC[C@@H]4[C@@]5(C)CC[C@H](O)C(C)(C)[C@@H]5CC[C@]43C)[C@@H]12 [betulinic acid (8), 3β-hydroxy-20(29)-lupaene-28-oic acid] | 36.8 µM |  | 41.9% | > 500 µM |  |  |  |  |
| C[C@H]1C(=O)CC[C@@H]2[C@]1(C)CC[C@H]1[C@@]2(C)CC[C@@]2(C)[C@@H]3CC(C)(C)CC[C@]3(C)CC[C@]12C [friedelin (7), friedelan-3-one] | > 50 µM | inactive |  |  |  |  |  |  |
| O=C(C1CCCCC1)N1CC(=O)N2CCc3ccccc3C2C1 (stereo not shown) [praziquantel] | 0.8 µM |  | 92.6% |  | 96.8% | 93.9% | > 500 µM | >625 |
